Columns and labels:
Type in all cases: physicochemical
[1] = Lipid nanoparticle size and polydispersity by dynamic light scattering (Malvern Zetasizer Nano ZS); settings: LNP encapsulating hEPO mRNA; table of Example 16
Procedure: (§1) Briefly, a cationic lipid provided herein, DSPC, cholesterol, and PEG-lipid were solubilized in ethanol at a molar ratio of 50:10:38.5:1.5, and mRNA were diluted in 10 to 50 mM citrate buffer, pH=4. The LNPs were prepared at a total lipid to mRNA weight ratio of approximately 10:1 to 30:1 by mixing the ethanolic lipid solution with the aqueous mRNA solution at a volume ratio of 1:3 using a microfluidic apparatus, total flow rate ranging from 9-30 mL/min. Ethanol were thereby removed and replaced by DPBS using dialysis. Finally, the lipid nanoparticles were filtered through a 0.2 μm sterile filter.
(§2) Lipid nanoparticle size were determined by dynamic light scattering using a Malvern Zetasizer Nano ZS (Malvern UK) using a 173° backscatter detection mode. The encapsulation efficiency of lipid nanoparticles were determined using a Quant-it Ribogreen RNA quantification assay kit (Thermo Fisher Scientific, UK) according to the manufacturer's instructions.

[2] = Encapsulation efficiency of lipid nanoparticles (Quant-it Ribogreen RNA quantification assay); settings: LNP encapsulating hEPO mRNA; table of Example 16
Procedure: as §1, §2

[3] = Apparent pKa of LNP formulations by TNS fluorescence assay; settings: LNP cationic lipid/DSPC/cholesterol/DMG-PEG 50/10/38.5/1.5 mol %, table of Example 16
Procedure: As reported in literature, the apparent pKa of LNP formulations correlates with the delivery efficiency of LNPs for nucleic acids in vivo. The apparent pKa of each formulation was determined using an assay based on fluorescence of 2-(p-toluidino)-6-napthalene sulfonic acid (TNS). LNP formulations comprising of cationic lipid/DSPC/cholesterol/DMG-PEG (50/10/38.5/1.5 mol %) in PBS were prepared as described above. TNS was prepared as a 300 uM stock solution in distilled water. LNP formulations were diluted to 0.1 mg/ml total lipid in 3 mL of buffered solutions containing 50 mM sodium citrate, 50 mM sodium phosphate, 50 mM sodium borate, and 30 mM sodium chloride where the pH ranged from 3 to 9. An aliquot of the TNS solution was added to give a final concentration of 0.1 mg/ml and following vortex mixing fluorescence intensity was measured at room temperature in a Molecular Devices Spectramax iD3 spectrometer using excitation and mission wavelengths of 325 nm and 435 nm. A sigmoidal best fit analysis was applied to the fluorescence data and the pKa value was measured as the pH giving rise to half-maximal fluorescent intensity.

Row | SMILES | polydispersity [1] | size (nm) [1] | Encapsulation Efficiency [2] | Apparant Pka [3]
1 | CCCCC/C=C\C/C=C\CCCCCCCC(=O)OCC(COC(=O)CCCC(COC(=O)CCCCCCC)COC(=O)CCCCCCC)COC(=O)CCN(CCO)C1CCC1 (stereo not shown) [Compound 1] | 0.047 | 77.60 nm | 89.48% | 5.56
2 | CCCCC/C=C\C/C=C\CCCCCCCC(=O)OCC(COC(=O)CCOC(COC(=O)CCCCCCC)COC(=O)CCCCCCC)COC(=O)OCCCN(CC)CC (stereo not shown) [Compound 3] | 0.121 | 88.27 nm | 89.46% | 6.649
3 | CCCCC/C=C\C/C=C\CCCCCCCC(=O)OCC(COC(=O)CCCCN(CCO)C1CCC1)COC(=O)CCCC(COC(=O)CCCCCCC)COC(=O)CCCCCCC (stereo not shown) [Compound 4] | 0.090 | 93.73 nm | 91.42% | 6.881
4 | CCCCC/C=C\C/C=C\CCCCCCCC(=O)OCC(COC(=O)CCCC(COC(=O)CCCCCCC)COC(=O)CCCCCCC)COC(=O)OCCN(CCO)C1CCCCC1 (stereo not shown) [Compound 8] | 0.049 | 63.20 nm | 85.90% | 
5 | CCCCC/C=C\C/C=C\CCCCCCCC(=O)OCC(COC(=O)CCCC(COC(=O)CCCCCCC)COC(=O)CCCCCCC)COC(=O)OCCN(CCO)C1CCC1 (stereo not shown) [Compound 12] | 0.096 | 53.68 nm | 81.79% | 
6 | CCCCCCCCCCCC(=O)OCC(COC(=O)CCCC(COC(=O)CCCCCCC)COC(=O)CCCCCCC)COC(=O)CCN(CCO)C1CCC1 (stereo not shown) [Compound 15] | 0.043 | 90.47 nm | 93.04% | 
7 | CCCCCCCCCCCCC(=O)OCC(COC(=O)CCCCN(CCO)C1CCC1)COC(=O)CCCC(COC(=O)CCCCCCC)COC(=O)CCCCCCC (stereo not shown) [Compound 18] | 0.031 | 84.24 nm | 78.25% | 6.915
8 | CCCCC/C=C\C/C=C\CCCCCCCC(=O)OCC(COC(=O)CCCC(COC(=O)CCCCCCC)COC(=O)CCCCCCC)COC(=O)OCCN(CCO)C1CCCC1 (stereo not shown) [Compound 33] | 0.053 | 71.21 nm | 83.76% | 
9 | CCCCC/C=C\C/C=C\CCCCCCCC(=O)OCC(COC(=O)CCCC(COC(=O)CCCCCCC)COC(=O)CCCCCCC)COC(=O)OCCCN(CCO)C1CCC1 (stereo not shown) [Compound 34] | 0.049 | 82.63 nm | 89.00% | 6.307
10 | CCCCCCCCCCCCCCCC(=O)OCC(COC(=O)CCCCN(CCO)C1CCC1)COC(=O)CCCC(COC(=O)CCCCCCC)COC(=O)CCCCCCC (stereo not shown) [Compound 41] |  |  |  | 6.895
11 | CCCCC/C=C\C/C=C\CCCCCCCC(=O)OCC(COC(=O)CCCCCCN(CCO)C1CCC1)COC(=O)CCCC(COC(=O)CCCCCCC)COC(=O)CCCCCCC (stereo not shown) [Compound 42] | 0.077 | 96.94 nm | 92.04% | 6.879
12 | CCCCC/C=C\C/C=C\CCCCCCCC(=O)OCC(COC(=O)CCCCCCCN(CCO)C1CCC1)COC(=O)CCCC(COC(=O)CCCCCCC)COC(=O)CCCCCCC (stereo not shown) [Compound 43] | 0.04 | 95.19 nm | 93.46% | 6.766
13 | CCCCCCCC(=O)OCC(CCCC(=O)OCC(COC(=O)CCCCCCC)COC(=O)CCCCCCCN(CCO)C1CCC1)COC(=O)CCCCCCC (stereo not shown) [Compound 44] |  |  |  | 6.812
14 | CCCCCCCCC(=O)OCC(COC(=O)CCCCCN(CCO)C1CCC1)COC(=O)CCCC(COC(=O)CCCCCCC)COC(=O)CCCCCCC (stereo not shown) [Compound 45] | 0.067 | 144.2 nm | 90.08% | 6.965
15 | CCCCCCCCC(=O)OCC(COC(=O)CCCCCCCN(CCO)C1CCC1)COC(=O)CCCC(COC(=O)CCCCCCC)COC(=O)CCCCCCC (stereo not shown) [Compound 46] | 0.069 | 158.9 nm | 89.87% | 7.088
16 | CCCCCCCCCC(=O)OCC(COC(=O)CCCCN(CCO)C1CCC1)COC(=O)CCCC(COC(=O)CCCCCCC)COC(=O)CCCCCCC (stereo not shown) [Compound 47] |  |  |  | 7.217

Row | SMILES | polydispersity [1] | size (nm) [1] | Encapsulation Efficiency [2] | Apparant Pka [3]
17 | CCCCCCCCCCC(=O)OCC(COC(=O)CCCCN(CCO)C1CCC1)COC(=O)CCCC(COC(=O)CCCCCCC)COC(=O)CCCCCCC (stereo not shown) [Compound 48] | 0.087 | 108.4 nm | 93.21% | 7.229
18 | CCCCCCCCCCC(=O)OCC(COC(=O)CCCCCN(CCO)C1CCC1)COC(=O)CCCC(COC(=O)CCCCCCC)COC(=O)CCCCCCC (stereo not shown) [Compound 49] | 0.086 | 100.8 nm | 89.09% | 7.287
19 | CCCCCCCCCCCC(=O)OCC(COC(=O)CCCCCN(CCO)C1CCC1)COC(=O)CCCC(COC(=O)CCCCCCC)COC(=O)CCCCCCC (stereo not shown) [Compound 51] |  |  |  | 7.288
20 | CCCCCCCCCCCC(=O)OCC(COC(=O)CCCCCCCN(CCO)C1CCC1)COC(=O)CCCC(COC(=O)CCCCCCC)COC(=O)CCCCCCC (stereo not shown) [Compound 52] |  |  |  | 7.041
21 | CCCCCCCCCCCCCCCCCC(=O)OCC(COC(=O)CCCCCN(CCO)C1CCC1)COC(=O)CCCC(COC(=O)CCCCC)COC(=O)CCCCCCC (stereo not shown) [Compound 61] |  |  |  | 7.019
22 | CCCCCCCCCCCCC(=O)OCC(COC(=O)CCCCCN(CCO)C1CCC1)COC(=O)CCCC(COC(=O)CCCCCCC)COC(=O)CCCCCCC (stereo not shown) [Compound 63] |  |  |  | 6.999
23 | CCCCCCCCCCCCCCCCCC(=O)OCC(COC(=O)CCCC(COC(=O)CCCCCCC)COC(=O)CCCCCCC)COC(=O)OCCCN(CCO)C1CCCCC1 (stereo not shown) [Compound 65] |  |  |  | 6.111
24 | CCCCCCCCC(=O)OCC(COC(=O)CCCC(COC(=O)CCCCCCC)COC(=O)CCCCCCC)COC(=O)OCCCN(CCO)C1CCC1 (stereo not shown) [Compound 67] |  |  |  | 6.349
25 | CCCCCCCCCCCCCCCCCC(=O)OCC(COC(=O)CCCCN(CCO)C1CCC1)COC(=O)CCCC(COC(=O)CCCCCCC)COC(=O)CCCCCCC (stereo not shown) [Compound 72] |  |  |  | 7.076
26 | CCCCCCCCCCCCCCCCCC(=O)OCC(COC(=O)CCCCN(CCO)C1CCCCCC1)COC(=O)CCCC(COC(=O)CCCCCCC)COC(=O)CCCCCCC (stereo not shown) [Compound 75] |  |  |  | 6.547
27 | CCCCCCCCCC(=O)OCC(COC(=O)CCCCCCN(CCO)C1CCC1)COC(=O)CCCC(COC(=O)CCCCCCC)COC(=O)CCCCCCC (stereo not shown) [Compound 79] |  |  |  | 6.887
28 | CCCCCCCCCC(=O)OCC(COC(=O)CCCCCCCN(CCO)C1CCC1)COC(=O)CCCC(COC(=O)CCCCCCC)COC(=O)CCCCCCC (stereo not shown) [Compound 80] |  |  |  | 6.858
29 | CCCCCCCCCCCCCCCCCC(=O)OCC(COC(=O)CCCCN(CCC)CCO)COC(=O)CCCC(COC(=O)CCCCCCC)COC(=O)CCCCCCC (stereo not shown) [Compound 83] |  |  |  | 7.232
30 | C=CCN(CCO)CCCOC(=O)OCC(COC(=O)CCCCCCC/C=C\C/C=C\CCCCC)COC(=O)CCCC(COC(=O)CCCCCCC)COC(=O)CCCCCCC (stereo not shown) [Compound 88] |  |  |  | 5.905
31 | C/C=C/CN(CCO)CCCOC(=O)OCC(COC(=O)CCCCCCC/C=C\C/C=C\CCCCC)COC(=O)CCCC(COC(=O)CCCCCCC)COC(=O)CCCCCCC (stereo not shown) [Compound 94] |  |  |  | 6.192
32 | CCCCCCCCCCCCCCCCCC(=O)OCC(COC(=O)CCCCN(CCO)CC(C)C)COC(=O)CCCC(COC(=O)CCCCCCC)COC(=O)CCCCCCC (stereo not shown) [Compound 97] |  |  |  | 6.006

From patent US20240252650A1, “LIPID COMPOUNDS AND LIPID NANOPARTICLE COMPOSITIONS” (SUZHOU ABOGEN BIOSCIENCES CO., LTD., priority 2021, published 2024)
